Measurements published in patent US8846669B2, “Oxazolidinone derivative and medical composition containing same” (Legochem Biosciences, Inc., priority 2011, dated 2014).
Values after ≈ are worked out from the molar mass of the structure shown. Where two headings read alike, the source gives them in different places.

Tests used:
Test in all cases: In vitro antibacterial activity, broth microdilution MIC90
Type in all cases: cell-based
Enterococcus faecalis = tested on: Enterococcus faecalis
Protocol: (§1) MIC90 was measured by broth microdilution method based on CLSI standards [reference: Clinical and Laboratory Standards Institute Document. (2000) Methods for Dilution Antimicrobial Susceptibility Test for Bacteria that Grow Aerobically-Fifth Edition: M7-A5. CLSI, Villanova, Pa.].
(§2) Activities of 12 strains including Staphylococcus aureus, Methicillin Resistant Staphylococcus aureus, Staphylococcus epidermidis, Methicillin Resistant Staphylococcus epidermidis, Enterococcus faecalis, Vancomycin Resistant Enterococcus faecalis, Linezolid and Vancomycin Resistant Enterococcus faecalis, Enterococcus faecium, Vancomycin Resistant Enterococcus faecium, Linezolid and Vancomycin Resistant Enterococcus faecium, and Moraxella catarrhalis, were measured, and results are shown in Table 1 below.
(§3) The final concentration of test material in the antibacterial test was from 0.063 μg/mL (minimum) to 128 μg/mL (maximum), and the final concentration of DMSO used as an excipient was 2.5% (V/V). Linezolid represented by Formula B below (manufactured by Pfizer) was used as a control and bacterial activity thereof was compared with those of the test materials.

Enterococcus faecium = tested on: Enterococcus faecium
Protocol: as §1, §2, §3

[1] = tested on: Linezolid and Vancomycin Resistant Enterococcus faecalis
Protocol: as §1, §2, §3

[2] = tested on: Linezolid and Vancomycin Resistant Enterococcus faecium (strain 10)
Protocol: as §1, §2, §3

[3] = tested on: Linezolid and Vancomycin Resistant Enterococcus faecium (strain 11)
Protocol: as §1, §2, §3

[4] = tested on: Methicillin Resistant Staphylococcus aureus
Protocol: as §1, §2, §3

[5] = tested on: Methicillin Resistant Staphylococcus epidermidis
Protocol: as §1, §2, §3

Moraxella catarrhalis = tested on: Moraxella catarrhalis
Protocol: as §1, §2, §3

Staphylococcus aureus = tested on: Staphylococcus aureus
Protocol: as §1, §2, §3

[6] = tested on: Staphylococcus epidermidis
Protocol: as §1, §2, §3

[7] = tested on: Vancomycin Resistant Enterococcus faecalis
Protocol: as §1, §2, §3

[8] = tested on: Vancomycin Resistant Enterococcus faecium
Protocol: as §1, §2, §3

[9] = Enterococcus faecalis, strain 5, E. faecalis, read-out: MIC90
[10] = Enterococcus faecium, strain 8, E. faecium, read-out: MIC90
[11] = Enterococcus faecalis, strain 7, E. faecalis VanA LR, read-out: MIC90
[12] = Enterococcus faecium, strain 10, E. faecium VanA LR, read-out: MIC90
[13] = Enterococcus faecium, strain 11, E. faecium VanA LR, read-out: MIC90
[14] = Staphylococcus aureus, strain 2, S. aureus MR, read-out: MIC90
[15] = Staphylococcus epidermidis, strain 4, S. epidermidis MR, read-out: MIC90
[16] = Moraxella catarrhalis, strain 12, M. catarrhalis, read-out: MIC90
[17] = Staphylococcus aureus, strain 1, S. aureus, read-out: MIC90
[18] = Staphylococcus epidermidis, strain 3, S. epidermidis, read-out: MIC90
[19] = Enterococcus faecalis, strain 6, E. faecalis VanA, read-out: MIC90
[20] = Enterococcus faecium, strain 9, E. faecium VanA, read-out: MIC90

Row | Structure (SMILES) | MIC90 (Enterococcus faecalis; strain 5, E. faecalis) | MIC90 (Enterococcus faecium; strain 8, E. faecium) | MIC90 ([1]; strain 7, E. faecalis VanA LR) | MIC90 ([2]; strain 10, E. faecium VanA LR) | MIC90 ([3]; strain 11, E. faecium VanA LR) | MIC90 ([4]; strain 2, S. aureus MR) | MIC90 ([5]; strain 4, S. epidermidis MR) | MIC90 (Moraxella catarrhalis; strain 12, M. catarrhalis) | MIC90 (Enterococcus faecalis; Enterococcus faecalis) | MIC90 (Enterococcus faecium; Enterococcus faecium) | MIC90 ([1]; Enterococcus faecalis) | MIC90 ([2]; Enterococcus faecium) | MIC90 ([3]; Enterococcus faecium) | MIC90 ([4]; Staphylococcus aureus) | MIC90 ([5]; Staphylococcus epidermidis) | MIC90 (Moraxella catarrhalis; Moraxella catarrhalis) | MIC90 (Staphylococcus aureus; Staphylococcus aureus) | MIC90 ([6]; Staphylococcus epidermidis) | MIC90 ([7]; Enterococcus faecalis) | MIC90 ([8]; Enterococcus faecium) | other results
1 | CN1CCN(c2ccc(-c3ccc(N4C[C@H](CNc5ccon5)OC4=O)cc3F)cn2)C=N1 [Compound 40] | 0.5 mg/L (≈ 1.11 µM) | 0.125 mg/L (≈ 0.277 µM) | 2 mg/L (≈ 4.43 µM) | 4 mg/L (≈ 8.86 µM) | 4 mg/L (≈ 8.86 µM) | 0.25 mg/L (≈ 0.554 µM) | 2 mg/L (≈ 4.43 µM) | 2 mg/L (≈ 4.43 µM) |  |  |  |  |  |  |  |  |  |  |  |  | MIC90 (Staphylococcus aureus; strain 1, S. aureus): 0.25 mg/L (≈ 0.554 µM); MIC90 ([6]; strain 3, S. epidermidis): 0.5 mg/L (≈ 1.11 µM); MIC90 ([7]; strain 6, E. faecalis VanA): 1 mg/L (≈ 2.22 µM); MIC90 ([8]; strain 9, E. faecium VanA): 0.5 mg/L (≈ 1.11 µM)
2 | O=C1O[C@@H](CNc2ccon2)CN1c1ccc(-c2ccc(C3=NOCCN3)nc2)c(F)c1 [Compound 67] | 0.5 mg/L (≈ 1.14 µM) | 0.25 mg/L (≈ 0.57 µM) | 2 mg/L (≈ 4.56 µM) | 2 mg/L (≈ 4.56 µM) | 2 mg/L (≈ 4.56 µM) | 0.5 mg/L (≈ 1.14 µM) | 0.5 mg/L (≈ 1.14 µM) | 1 mg/L (≈ 2.28 µM) |  |  |  |  |  |  |  |  |  |  |  |  | MIC90 (Staphylococcus aureus; strain 1, S. aureus): 0.25 mg/L (≈ 0.57 µM); MIC90 ([6]; strain 3, S. epidermidis): 0.25 mg/L (≈ 0.57 µM); MIC90 ([7]; strain 6, E. faecalis VanA): 0.5 mg/L (≈ 1.14 µM); MIC90 ([8]; strain 9, E. faecium VanA): 0.5 mg/L (≈ 1.14 µM)
3 | CC(=O)NC[C@H]1CN(c2ccc(-c3ccc(N4CCNC=N4)nc3)c(F)c2)C(=O)O1 [Compound 53] |  |  |  |  |  |  |  |  | 1 mg/L (≈ 2.42 µM) | 1 mg/L (≈ 2.42 µM) | 4 mg/L (≈ 9.7 µM) | 4 mg/L (≈ 9.7 µM) | 4 mg/L (≈ 9.7 µM) | 2 mg/L (≈ 4.85 µM) | 2 mg/L (≈ 4.85 µM) | 4 mg/L (≈ 9.7 µM) | 1 mg/L (≈ 2.42 µM) | 1 mg/L (≈ 2.42 µM) | 1 mg/L (≈ 2.42 µM) | 1 mg/L (≈ 2.42 µM) | 
4 | O=C1O[C@@H](CNc2ccon2)CN1c1ccc(-c2ccc(N3C=NOCC3)nc2)c(F)c1 [Compound 61] | 0.5 mg/L (≈ 1.14 µM) | 0.25 mg/L (≈ 0.57 µM) | 2 mg/L (≈ 4.56 µM) | 2 mg/L (≈ 4.56 µM) | 2 mg/L (≈ 4.56 µM) | 0.25 mg/L (≈ 0.57 µM) | 0.5 mg/L (≈ 1.14 µM) | 2 mg/L (≈ 4.56 µM) |  |  |  |  |  |  |  |  |  |  |  |  | MIC90 (Staphylococcus aureus; strain 1, S. aureus): 0.063 mg/L (≈ 0.144 µM); MIC90 ([6]; strain 3, S. epidermidis): 0.25 mg/L (≈ 0.57 µM); MIC90 ([7]; strain 6, E. faecalis VanA): 0.5 mg/L (≈ 1.14 µM); MIC90 ([8]; strain 9, E. faecium VanA): 0.5 mg/L (≈ 1.14 µM)
5 | CC(=O)NC[C@H]1CN(c2ccc(-c3ccc(N4C=NN(C(=O)CN)CC4)nc3)c(F)c2)C(=O)O1 [Compound 19] |  |  |  |  |  |  |  |  | 0.5 mg/L (≈ 1.07 µM) | 0.25 mg/L (≈ 0.533 µM) | 2 mg/L (≈ 4.26 µM) | 2 mg/L (≈ 4.26 µM) | 2 mg/L (≈ 4.26 µM) | 0.5 mg/L (≈ 1.07 µM) | 0.5 mg/L (≈ 1.07 µM) | 1 mg/L (≈ 2.13 µM) | 0.25 mg/L (≈ 0.533 µM) | 0.25 mg/L (≈ 0.533 µM) | 0.5 mg/L (≈ 1.07 µM) | 0.5 mg/L (≈ 1.07 µM) | 
6 | COC(=O)NC[C@H]1CN(c2ccc(-c3ccc(N4C=NN(C)CC4)nc3)c(F)c2)C(=O)O1 [Compound 24] |  |  |  |  |  |  |  |  | 1 mg/L (≈ 2.26 µM) | 0.5 mg/L (≈ 1.13 µM) | 4 mg/L (≈ 9.04 µM) | 4 mg/L (≈ 9.04 µM) | 8 mg/L (≈ 18.1 µM) | 1 mg/L (≈ 2.26 µM) | 2 mg/L (≈ 4.52 µM) | 4 mg/L (≈ 9.04 µM) | 0.5 mg/L (≈ 1.13 µM) | 0.5 mg/L (≈ 1.13 µM) | 1 mg/L (≈ 2.26 µM) | 0.5 mg/L (≈ 1.13 µM) | 
7 | CC(=O)NC[C@H]1CN(c2ccc(-c3ccc(N4C=NN(C(=O)C5COC(C)(C)O5)CC4)nc3)c(F)c2)C(=O)O1 (stereo partly drawn) [Compound 20] |  |  |  |  |  |  |  |  | 2 mg/L (≈ 3.7 µM) | 2 mg/L (≈ 3.7 µM) | 8 mg/L (≈ 14.8 µM) | 8 mg/L (≈ 14.8 µM) | 8 mg/L (≈ 14.8 µM) | 8 mg/L (≈ 14.8 µM) | 4 mg/L (≈ 7.4 µM) | 8 mg/L (≈ 14.8 µM) | 2 mg/L (≈ 3.7 µM) | 4 mg/L (≈ 7.4 µM) | 2 mg/L (≈ 3.7 µM) | 2 mg/L (≈ 3.7 µM) | 
8 | O=C1O[C@@H](Cn2ccnn2)CN1c1ccc(-c2ccc(N3C=NOCC3)nc2)c(F)c1 [Compound 60] |  |  |  |  |  |  |  |  |  |  |  |  |  |  |  |  |  |  |  |  | MIC90 (Enterococcus faecalis; [9]): 0.25 mg/L (≈ 0.59 µM); MIC90 (Enterococcus faecium; [10]): 0.125 mg/L (≈ 0.295 µM); MIC90 [1, 11]: 1 mg/L (≈ 2.36 µM); MIC90 [2, 12]: 1 mg/L (≈ 2.36 µM); MIC90 [3, 13]: 2 mg/L (≈ 4.72 µM); MIC90 [4, 14]: 0.25 mg/L (≈ 0.59 µM); MIC90 [5, 15]: 0.25 mg/L (≈ 0.59 µM); MIC90 (Moraxella catarrhalis; [16]): 1 mg/L (≈ 2.36 µM); MIC90 (Staphylococcus aureus; [17]): 0.125 mg/L (≈ 0.295 µM); MIC90 [6, 18]: 0.25 mg/L (≈ 0.59 µM); MIC90 [7, 19]: 0.25 mg/L (≈ 0.59 µM); MIC90 [8, 20]: 0.125 mg/L (≈ 0.295 µM)
9 | CC(=O)NC[C@H]1CN(c2ccc(N3CCOCC3)c(F)c2)C(=O)O1 [LZD, Linezolid, reference compound] |  |  |  |  |  |  |  |  |  |  |  |  |  |  |  |  |  |  |  |  | MIC90 (Enterococcus faecalis; [9]): 2 mg/L (≈ 5.93 µM); MIC90 (Enterococcus faecium; [10]): 1 mg/L (≈ 2.96 µM); MIC90 [1, 11]: 32 mg/L (≈ 94.9 µM); MIC90 [2, 12]: 32 mg/L (≈ 94.9 µM); MIC90 [3, 13]: 64 mg/L (≈ 190 µM); MIC90 [4, 14]: 2 mg/L (≈ 5.93 µM); MIC90 [5, 15]: 2 mg/L (≈ 5.93 µM); MIC90 (Moraxella catarrhalis; [16]): 8 mg/L (≈ 23.7 µM); MIC90 (Staphylococcus aureus; [17]): 1 mg/L (≈ 2.96 µM); MIC90 [6, 18]: 1 mg/L (≈ 2.96 µM); MIC90 [7, 19]: 2 mg/L (≈ 5.93 µM); MIC90 [8, 20]: 2 mg/L (≈ 5.93 µM)
